According to US20170008845A1, “PYRIDINYL CYCLOHEXANECARBOXAMIDE COOLING COMPOUNDS” (Givaudan, S.A., priority 2005, published 2017):
Like-named read-outs stand apart in the source and are kept apart here.

Legend:
[1] = system: panelists (cooling sensation in the mouth); conditions: cooling intensity similar to or slightly higher than menthol at 2 ppm
mouth and lips = conditions: 50 mL of 1% solution in alcohol per 1 liter mouthwash (with peppermint oil); 30 mL swished, gargled, spit out
Procedure: All the ingredients are mixed. 30 mL of obtained solution is put in the mouth, swished around, gargled and spit out.

[2] = system: panelists (cooling sensation in the mouth); assay: Panel tasting of aqueous solutions: cooling intensity matched to menthol 2 ppm, and longevity; type: in vivo; conditions: for Longevity (time until no cooling could be sensed in the mouth): aqueous solution at the chosen concentration of Table 2; for Concentration with cooling intensity similar or slightly higher than menthol at 2 ppm: aqueous solution, tasted by a small panel
From the text: The same panel is asked to taste these solutions at the chosen concentrations and to record the cooling intensity at regular time intervals until no cooling could be sensed in the mouth.

panelist's mouth [3] = conditions: 1.5 mg in 355 mL can of clear lemon/lime soda
Procedure: 1.5 mg of the compound of example 2 is dissolved in a 355 mL (12 fl oz.) can of clear lemon/lime soda.

panelist's mouth [4] = conditions: 2.500 g of 2% solution in propylene glycol in 97 g opaque toothgel (with peppermint oil); teeth brushed, mouth rinsed
From the text: The chemicals are mixed in the toothgel, a piece of toothgel is put on a toothbrush and a panelist's teeth are brushed. The mouth is rinsed with water and the water is spit out.

SMILES	Isointensive concentration [1] [ppm]	Isointensive concentration ([1]; listed as m = 0, 4) [ppm]	Cooling sensation in mouthwash (mouth and lips)	Longevity (time until no cooling could be sensed in the mouth) [2] [min]	Concentration with cooling intensity similar or slightly higher than menthol at 2 ppm [2] [ppm]	Isointensive concentration ([1]; listed as m = 2, 2 or 6) [ppm]	After-taste in beverage (panelist's mouth [3])	Cooling sensation in beverage (panelist's mouth [3])	Cooling sensation in toothgel (panelist's mouth [4])
CC1CCC(C(C)C)C(C(=O)Nc2ccncc2)C1 (centres unmarked) [Example 1, N-(4-pyridinyl) p-menthanecarboxamide]	0.67	0.5	icy-cool sensation is felt in every area of the mouth as well as lips	50	0.5				
CC(C)[C@@H]1CC[C@@H](C)C[C@H]1C(=O)NCCc1ccccn1 [Example 2, (1R,2S,5R)-2-isopropyl-5-methyl-N-(2-(pyridin-2-yl)ethyl)cyclohexanecarboxamide]	0.05			60	0.02	0.02	No unpleasant after-taste	agreeable delayed cooling sensation in the mouth with no throat burning	intense cooling sensation is felt by the panelist in all areas of the mouth
CC(C)C(C)(C(=O)NCCc1ccccn1)C(C)C [Example 3, 2-isopropyl-2,3-dimethyl-N-(2-(pyridin-2-yl)ethyl)butanamide]					0.4				
CCNC(=O)C1CC(C)CCC1C(C)C (centres unmarked) [N-ethyl p-menthanecarboxamide (WS-3), N-ethyl p-menthanecarboxamide, reference compound]				57	1.5				
CC(C)[C@@H]1CC[C@@H](C)C[C@H]1O [l-Menthol, reference compound]				35	2.0				
